Reference: US6893650B1, “N2-phenylamidine derivatives” (Bayer Cropscience GmbH, priority 1999, dated 2005)

test system: Leptosphaeria nodorum; assay: glume blotch, spray or stem-base drench of test plants, infection visually estimated; format: in vivo; details: concentration of 500 ppm (w/v) or less; further: key: 1 is little or no control; 2 is moderate control; 3 is good to total control

Row | SMILES | score of 1 to 3 (control, degree of infection visually estimated)
1 | Cc1cc(Oc2cccc(C(F)(F)F)c2)c(C)cc1N=CN(C)C [Compound 1] | 2
2 | CC(=Nc1cc(C)c(Oc2cccc(C(F)(F)F)c2)cc1C)N(C)C [Compound 2] | 2
3 | CC(=Nc1cc(C)c(SCc2cccc(C(F)(F)F)c2)cc1C)N(C)C [Compound 5] | 2
4 | Cc1cc(Oc2cccc(Cl)c2)c(C)cc1N=CN(C)C [Compound 7] | 2
5 | Cc1cc(Oc2cccc(C(C)(C)C)c2)c(C)cc1N=CN(C)C [Compound 8] | 2
6 | COc1cc(N=CN(C)C)c(Br)cc1Oc1cccc(C(F)(F)F)c1 [Compound 15] | 2
7 | COc1ccccc1Oc1cc(C)c(N=CN(C)C)cc1C [Compound 27] | 2
8 | Cc1cc(Oc2cccc(C#N)c2)c(C)cc1N=CN(C)C [Compound 29] | 2
9 | Cc1cc(Oc2cccc(C(F)(F)F)c2)c(C)cc1N=CN1CCOCC1 [Compound 35] | 2
10 | CCN(C=Nc1cc(C)c(Oc2cccc(C(F)(F)F)c2)cc1C)CC [Compound 37, N,N-Diethyl-N′-[4-(3-trifluoromethylphenoxy)-2,5-xylyl]formamidine] | 2
11 | Cc1cc(Oc2cccc(C(F)(F)F)c2)c(C)cc1N=CN1CCCC1 [Compound 41] | 2
12 | Cc1cc(Oc2cccc(C(F)(F)F)c2)c(C)cc1N=CN1CCCCC1 [Compound 43] | 2
13 | CCN(C)C=Nc1cc(C)c(Oc2cccc(C(F)(F)F)c2)cc1C [Compound 45, N-Ethyl-N-methyl-N′-[4-(3-trifluoromethylphenoxy)-2,5-xylyl]formamidine] | 2
14 | Cc1cc(Oc2nc(-c3ccccc3)ns2)c(C)cc1N=CN(C)C [Compound 48, N,N-Dimethyl-N′-[4-(3-phenyl-1,2,4-thiadiazol-5-yloxy)-2,5-xylyl]formamidine] | 2
15 | COc1cccc(Oc2cc(C)c(N=CN(C)C)cc2C)c1 [Compound 56] | 2
16 | CCNC=Nc1cc(C)c(Oc2cccc(C(F)(F)F)c2)cc1C [Compound 59] | 2
17 | Cc1cc(Oc2ccc(C(C)(C)C)cc2)c(C)cc1N=CN(C)C [Compound 61] | 2
18 | Cc1cc(Oc2nc(Br)ns2)c(C)cc1N=CN(C)C [Compound 72] | 2
19 | CCN(C)C=Nc1cc(C)c(Oc2cccc(C(C)(C)C)c2)cc1C [Compound 100] | 2
20 | CCC(C)c1ccc(Oc2cc(C)c(N=CN(C)C)cc2C)cc1 (stereo not drawn) [Compound 130] | 2
21 | Cc1cc(OC(=O)c2sc3ccccc3c2Cl)c(C)cc1N=CN(C)C [Compound 160] | 2

Row | SMILES | score of 1 to 3 (control, degree of infection visually estimated)
22 | CCC(C)(C)c1ccc(Oc2cc(C)c(N=CN(C)C)cc2C)cc1 [Compound 170] | 2
23 | CCc1ccc(Oc2cc(C)c(N=CN(C)C)cc2C)cc1 [Compound 181] | 2
24 | Cc1cc(Oc2nc3cc(C(F)(F)F)ccc3s2)c(C)cc1N=CN(C)C [Compound 194] | 2
25 | Cc1cc(Oc2nc(-c3ccccc3)ns2)c(C(C)C)cc1N=CN(C)C [Compound 208] | 2
26 | Cc1cc(C(C#N)c2cccc(C(F)(F)F)c2)c(C)cc1N=CN(C)C (stereo not drawn) [Compound 214] | 2
27 | C#CCOc1ccc(Oc2cc(C)c(N=CN(C)C)cc2C)cc1 [Compound 235] | 2
28 | Cc1cc(Oc2nc(-c3ccccc3)ns2)c(C)cc1N=CN1CCCCC1 [Compound 246] | 2
29 | Cc1cc(Oc2cccc(C(C)(C)C)c2)c(C)cc1N=CN(C)C(C)C [Compound 283] | 2
30 | C=CCN(C)C=Nc1cc(C)c(Oc2cccc(C(C)(C)C)c2)cc1C [Compound 284] | 2
31 | Cc1cc(OCc2ccc(OCC3CCCCC3)cc2)c(C)cc1N=CN(C)C [Compound 290] | 2
32 | Cc1cc(Oc2ccc(OC(C)C)cc2)c(C)cc1N=CN(C)C [Compound 303] | 2
33 | CCN(C)C=Nc1cc(C)c(Oc2cccc(Cl)c2)cc1C [Compound 310] | 2
34 | CCN(C)C=Nc1cc(C)c(Oc2ccc(C(C)C)cc2)cc1C [Compound 311] | 2
35 | CCN(C)C=Nc1cc(C)c(Oc2cccc(OC)c2)cc1C [Compound 312] | 2
36 | CCN(C)C=Nc1cc(C)c(Oc2cccc(Oc3ccccc3)c2)cc1C [Compound 325] | 2
37 | CCN(C)C=Nc1cc(C)c(Oc2ccc(C(C)(C)C)cc2)cc1C [Compound 326] | 2
38 | Cc1cc(Oc2nc(-c3ccc(Cl)c(Cl)c3)cs2)c(C)cc1N=CN(C)C [Compound 351] | 2
39 | CCN(C)C=Nc1cc(C)c(Oc2ccc(Cl)c(C(F)(F)F)c2)cc1C [Compound 364] | 2
40 | Cc1cc(C)nc(Oc2cccc(Oc3cc(C)c(N=CN(C)C)cc3C)c2)n1 [Compound 369] | 2
41 | Cc1cc(Oc2cccc(C3CCCC3)c2)c(C)cc1N=CN(C)C [Compound 378] | 2
42 | COC(C)(C)c1cccc(Oc2cc(C)c(N=CN(C)C)cc2C)c1 [Compound 392] | 2
